This is an account of results in article PMC5064235, “Structure-Based Design of Novel Tetrahydro-Beta-Carboline Derivatives with a Hydrophilic Side Chain as Potential Phosphodiesterase Inhibitors” (Scientia Pharmaceutica, 2015).

The structures appear in SMILES notation.

Tested on in one data set: not given
Experiment: not given
Conditions: not given
`NCCN1CC(=O)N2[C@@H](c3ccc(Cl)cc3)c3[nH]c4ccccc4c3C[C@H]2C1=O` [Compound 6j, (6S,12aS)-2-(2-Amino-ethyl)-6-(4-chloro-phenyl)-2,3,6,7,12,12a-hexahydro-pyrazino[1’,2’:1,6]pyrido[3,4-b]indole-1,4-dione] yielded a melting point of 231 to 233 °C.

In turn, `O=C1[C@@H]2Cc3c([nH]c4ccccc34)[C@H](c3ccc(Cl)cc3)N2C(=O)CN1CCO` [Compound 6i, (6S,12aS)-6-(4-Chloro-phenyl)-2-(2-hydroxy-ethyl)-2,3,6,7,12,12a-hexahydro-pyrazino[1’,2’:1,6]pyrido[3,4-b]indole-1,4-dione] registered a melting point of 231 to 233 °C.

A further data set has as its target T1, recombinant human PDE5 (Homo sapiens, UniProt O76074).
T1 construct: purchased BPS Biosciences, San Diego, CA, USA
Briefly: In vitro PDE5 inhibitory activity (IMAP FP phosphodiesterase assay). It counts as biochemical. To be noted: purified PDE5, 50 nM TAMRA-cGMP, 1.5 h at 30 °C; 10 concentrations, at least two replicates; read-out: PDE5 Inhibition IC50. Here is the method: Phosphodiesterase Assay: 5 U/mL of purified PDE5 (BPS Biosciences, San Diego, CA, USA) was added to the wells of black 96-well non-binding plates. Immediately, the protein was treated with the compound or vehicle control and 50 nM TAMRA-cGMP and 50 nM Fluourescein-cAMP (Molecular Devices, Sunnyvale, CA, USA) were added to each assay well. The plates were incubated for 1.5 h at 30 °C. After incubation, the IMAP FP Phosphodiesterase Evaluation Assay (Molecular Devices, Sunnyvale, CA, USA) binding reagent was added to each well and the plates were incubated for an additional 30 min at 30 °C. FP was measured according to manufacturer’s specifications using a Biotech Synergy 4 plate reader. PDE activity was expressed by an IC50 value (50% inhibitory concentration). Data analysis was done through dose-response analysis, which was repeated at least twice to confirm the reproducibility of the IC50 values.
All the synthesized final THβC compounds were tested for their ability to inhibit recombinant human PDE5. Most of the compounds were evaluated in two steps. The first step was the determination of the percentage inhibition at a screening dose of 10 μM performed in triplicate. For compounds displaying a percentage of inhibition >50%, the IC50 was then determined by testing a range of 10 concentrations with at least two replicates per concentration (Table 2).
Regarding `NCCN1CC(=O)N2[C@@H](c3ccc(Cl)cc3)c3[nH]c4ccccc4c3C[C@H]2C1=O` [Compound 6j, (6S,12aS)-2-(2-Amino-ethyl)-6-(4-chloro-phenyl)-2,3,6,7,12,12a-hexahydro-pyrazino[1’,2’:1,6]pyrido[3,4-b]indole-1,4-dione], the IC50 was over 10 µM.

As for `O=C1[C@H]2Cc3c([nH]c4ccccc34)[C@H](c3ccc(Br)cc3)N2C(=O)CN1CCCCO` [Compound 7g, (6S,12R)-6-(4-Bromo-phenyl)-2-(4-hydroxy-butyl)-2,3,6,7,12,12a-hexahydropyrazino[1’,2’:1,6]pyrido[3,4-b]indole-1,4-dione], the IC50 is over 10 µM.

With `O=C1[C@@H]2Cc3c([nH]c4ccccc34)[C@H](c3ccc(Cl)cc3)N2C(=O)CN1CCO` [Compound 6i, (6S,12aS)-6-(4-Chloro-phenyl)-2-(2-hydroxy-ethyl)-2,3,6,7,12,12a-hexahydro-pyrazino[1’,2’:1,6]pyrido[3,4-b]indole-1,4-dione], the half-maximal inhibitory concentration (IC50) is over 10 µM.

With `O=C1[C@H]2Cc3c([nH]c4ccccc34)[C@@H](c3ccc(Br)cc3)N2C(=O)CN1CCO` [Compound 7a, (6R,12R)-6-(4-Bromo-phenyl)-2-(2-hydroxy-ethyl)-2,3,6,7,12,12a-hexahydro-pyrazino[1’,2’:1,6]pyrido[3,4-b]indole-1,4-dione], the IC50 was determined as 0.84 µM.

Turning to `NCCCCN1CC(=O)N2[C@H](c3ccc(Br)cc3)c3[nH]c4ccccc4c3C[C@H]2C1=O` [Compound 7p, (6R,12S)-2-(4-Amino-butyl)-6-(4-bromo-phenyl)-2,3,6,7,12,12a-hexahydro-pyrazino[1’,2’:1,6]pyrido[3,4-b]indole-1,4-dione], the concentration for half-maximal inhibition (IC50) was 3.5 µM.

In the case of `NCCN1CC(=O)N2[C@@H](c3ccc(Br)cc3)c3[nH]c4ccccc4c3C[C@H]2C1=O` [Compound 7j, (6S,12S)-2-(2-Amino-ethyl)-6-(4-bromo-phenyl)-2,3,6,7,12,12a-hexahydro-pyrazino[1’,2’:1,6]pyrido[3,4-b]indole-1,4-dione], the IC50 was over 10 µM.

As for `NCCCCN1CC(=O)N2[C@H](c3ccc(Cl)cc3)c3[nH]c4ccccc4c3C[C@H]2C1=O` [Compound 6p, (6R,12S)-2-(4-Amino-butyl)-6-(4-chloro-phenyl)-2,3,6,7,12,12a-hexahydro-pyrazino[1’,2’:1,6]pyrido[3,4-b]indole-1,4-dione], the IC50 was over 10 µM.

As to `NCCCCN1CC(=O)N2[C@@H](c3ccc(Br)cc3)c3[nH]c4ccccc4c3C[C@@H]2C1=O` [Compound 7h, (6S,12R)-2-(4-Amino-butyl)-6-(4-bromo-phenyl)-2,3,6,7,12,12a-hexahydro-pyrazino[1’,2’:1,6]pyrido[3,4-b]indole-1,4-dione], the IC50 amounted to 3.2 µM.

For the molecule `O=C1[C@@H]2Cc3c([nH]c4ccccc34)[C@H](c3ccc(Br)cc3)N2C(=O)CN1CCCCO` [Compound 7k, (6S,12S)-6-(4-Bromo-phenyl)-2-(4-hydroxy-butyl)-2,3,6,7,12,12a-hexahydropyrazino[1’,2’:1,6]pyrido[3,4-b]indole-1,4-dione], the 50% inhibitory concentration (IC50) is over 10 µM.

Turning to `O=C1[C@H]2Cc3c([nH]c4ccccc34)[C@H](c3ccc(Br)cc3)N2C(=O)CN1CCO` [Compound 7e, (6S,12R)-6-(4-Bromo-phenyl)-2-(2-hydroxy-ethyl)-2,3,6,7,12,12a-hexahydro-pyrazino[1’,2’:1,6]pyrido[3,4-b]indole-1,4-dione], the IC50 was over 10 µM.

As for `NCCCCN1CC(=O)N2[C@H](c3ccc(Cl)cc3)c3[nH]c4ccccc4c3C[C@@H]2C1=O` [Compound 6d, (6R,12R)-2-(4-Amino-butyl)-6-(4-chloro-phenyl)-2,3,6,7,12,12a-hexahydro-pyrazino[1’,2’:1,6]pyrido[3,4-b]indole-1,4-dione], the IC50 was over 10 µM.

Turning to `O=C1[C@@H]2Cc3c([nH]c4ccccc34)[C@@H](c3ccc(Br)cc3)N2C(=O)CN1CCCCO` [Compound 7o, (6R,12S)-6-(4-Bromo-phenyl)-2-(4-hydroxy-butyl)-2,3,6,7,12,12a-hexahydropyrazino[1’,2’:1,6]pyrido[3,4-b]indole-1,4-dione], the IC50 was found to be 0.82 µM.

Turning to `NCCN1CC(=O)N2[C@H](c3ccc(Br)cc3)c3[nH]c4ccccc4c3C[C@@H]2C1=O` [Compound 7b, (6R,12R)-2-(2-Amino-ethyl)-6-(4-bromo-phenyl)-2,3,6,7,12,12a-hexahydro-pyrazino[1’,2’:1,6]pyrido[3,4-b]indole-1,4-dione], the IC50 amounted to 2.4 µM.

Consider `NCCCCN1CC(=O)N2[C@@H](c3ccc(Cl)cc3)c3[nH]c4ccccc4c3C[C@H]2C1=O` [Compound 6l, (6S,12S)-2-(4-Amino-butyl)-6-(4-chloro-phenyl)-2,3,6,7,12,12a-hexahydro-pyrazino[1’,2’:1,6]pyrido[3,4-b]indole-1,4-dione], for which the concentration for half-maximal inhibition (IC50) is over 10 µM.

Regarding `NCCN1CC(=O)N2[C@@H](c3ccc(Br)cc3)c3[nH]c4ccccc4c3C[C@@H]2C1=O` [Compound 7f, (6S,12R)-2-(2-Amino-ethyl)-6-(4-bromo-phenyl)-2,3,6,7,12,12a-hexahydro-pyrazino[1’,2’:1,6]pyrido[3,4-b]indole-1,4-dione], the IC50 was over 10 µM.

For the molecule `O=C1[C@H]2Cc3c([nH]c4ccccc34)[C@@H](c3ccc(Br)cc3)N2C(=O)CN1CCCCO` [Compound 7c, (6R,12R)-6-(4-Bromo-phenyl)-2-(4-hydroxy-butyl)-2,3,6,7,12,12a-hexahydropyrazino[1’,2’:1,6]pyrido[3,4-b]indole-1,4-dione], the IC50 amounted to 0.1 µM.

As for `O=C1[C@@H]2Cc3c([nH]c4ccccc34)[C@H](c3ccc(Br)cc3)N2C(=O)CN1CCO` [Compound 7i, (6S,12S)-6-(4-Bromo-phenyl)-2-(2-hydroxy-ethyl)-2,3,6,7,12,12a-hexahydro-pyrazino[1’,2’:1,6]pyrido[3,4-b]indole-1,4-dione], the IC50 is over 10 µM.

Turning to `NCCCCN1CC(=O)N2[C@H](c3ccc(Br)cc3)c3[nH]c4ccccc4c3C[C@@H]2C1=O` [Compound 7d, (6R,12R)-2-(4-Amino-butyl)-6-(4-bromo-phenyl)-2,3,6,7,12,12a-hexahydro-pyrazino[1’,2’:1,6]pyrido[3,4-b]indole-1,4-dione], the IC50 was found to be 2.7 µM.

Regarding `NCCCCN1CC(=O)N2[C@@H](c3ccc(Br)cc3)c3[nH]c4ccccc4c3C[C@H]2C1=O` [Compound 7l, (6S,12S)-2-(4-Amino-butyl)-6-(4-bromo-phenyl)-2,3,6,7,12,12a-hexahydro-pyrazino[1’,2’:1,6]pyrido[3,4-b]indole-1,4-dione], the IC50 is over 10 µM.

Consider `O=C1[C@@H]2Cc3c([nH]c4ccccc34)[C@@H](c3ccc(Br)cc3)N2C(=O)CN1CCO` [Compound 7m, (6R,12S)-6-(4-Bromo-phenyl)-2-(2-hydroxy-ethyl)-2,3,6,7,12,12a-hexahydro-pyrazino[1’,2’:1,6]pyrido[3,4-b]indole-1,4-dione], for which the half-inhibitory concentration (IC50) was 0.6 µM.

As for `NCCN1CC(=O)N2[C@H](c3ccc(Br)cc3)c3[nH]c4ccccc4c3C[C@H]2C1=O` [Compound 7n, (6R,12S)-2-(2-Amino-ethyl)-6-(4-bromo-phenyl)-2,3,6,7,12,12a-hexahydro-pyrazino[1’,2’:1,6]pyrido[3,4-b]indole-1,4-dione], the IC50 is 0.9 µM.

The term melting point denotes the temperature, or range, at which the solid turns liquid. By IC50 is commonly meant the point on the concentration scale where inhibition reaches its midpoint.
